Measured values as given in ChEMBL document CHEMBL1123948, “Synthesis and biological evaluation of poly-gamma-glutamyl metabolites of 10-deazaaminopterin and 10-ethyl-10-deazaaminopterin” (J Med Chem, 1988).
Where “and” joins values, the source holds several entries; their conditions need not be identical. Equal entries are not always repeated.

Assays:
Dihydrofolate reductase [1] = molecular target: T1, Dihydrofolate reductase (Lactobacillus casei, UniProt P00381); experiment: Inhibitory activity against dihydrofolate reductase in Lactobacillus casei was determined (glutamate residue 2); type: functional, Lacticaseibacillus casei
Dihydrofolate reductase [2] = molecular target: T1, Dihydrofolate reductase; experiment: Inhibitory activity against dihydrofolate reductase in Lactobacillus casei was determined (glutamate residue 3); type: functional, Lacticaseibacillus casei
Dihydrofolate reductase [3] = molecular target: T1, Dihydrofolate reductase; experiment: Inhibitory activity against dihydrofolate reductase in Lactobacillus casei was determined (glutamate residue 4); type: functional, Lacticaseibacillus casei
Dihydrofolate reductase [4] = molecular target: T1, Dihydrofolate reductase; experiment: Inhibitory activity against dihydrofolate reductase in Lactobacillus casei was determined (glutamate residue 5); type: functional, Lacticaseibacillus casei
Dihydrofolate reductase [5] = molecular target: T1, Dihydrofolate reductase; experiment: Inhibitory activity against dihydrofolate reductase in Lactobacillus casei was determined (glutamate residue 6); type: functional, Lacticaseibacillus casei
Lacticaseibacillus casei [6] = experiment: Inhibitory activity against thymidylate synthase in Lactobacillus casei was determined (glutamate residue 2); type: functional, organism-based
Lacticaseibacillus casei [7] = experiment: Inhibitory activity against thymidylate synthase in Lactobacillus casei was determined (glutamate residue 3); type: functional, organism-based
Lacticaseibacillus casei [8] = experiment: Inhibitory activity against thymidylate synthase in Lactobacillus casei was determined (glutamate residue 4); type: functional, organism-based
Lacticaseibacillus casei [9] = experiment: Inhibitory activity against thymidylate synthase in Lactobacillus casei was determined (glutamate residue 5); type: functional, organism-based
Lacticaseibacillus casei [10] = experiment: Inhibitory activity against the growth of Lactobacillus casei (ATCC 7469) was determined (glutamate residue 1); type: functional, organism-based
Lacticaseibacillus casei [11] = experiment: Inhibitory activity against the growth of Lactobacillus casei (ATCC 7469) was determined (glutamate residue 2); type: functional, organism-based
Lacticaseibacillus casei [12] = experiment: Inhibitory activity against the growth of Lactobacillus casei (ATCC 7469) was determined (glutamate residue 3); type: functional, organism-based
Lacticaseibacillus casei [13] = experiment: Inhibitory activity against the growth of Lactobacillus casei (ATCC 7469) was determined (glutamate residue 4); type: functional, organism-based
Lacticaseibacillus casei [14] = experiment: Inhibitory activity against the growth of Lactobacillus casei (ATCC 7469) was determined (glutamate residue 5); type: functional, organism-based
Lacticaseibacillus casei [15] = experiment: Inhibitory activity against the growth of Lactobacillus casei (ATCC 7469) was determined (glutamate residue 6); type: functional, organism-based
Lacticaseibacillus casei [16] = experiment: Inhibitory activity against thymidylate synthase in Lactobacillus casei was determined (glutamate residue 1); type: functional, organism-based
Lacticaseibacillus casei [17] = experiment: Inhibitory activity against thymidylate synthase in Lactobacillus casei was determined (glutamate residue 6); type: functional, organism-based
[18] = system: Enterococcus hirae (Streptococcus faecium ATCC 8043); experiment: Inhibitory activity against the growth of Streptococcus faecium (ATCC 8043) was determined (glutamate residue 6)

T1 sequence (P00381 whole entry): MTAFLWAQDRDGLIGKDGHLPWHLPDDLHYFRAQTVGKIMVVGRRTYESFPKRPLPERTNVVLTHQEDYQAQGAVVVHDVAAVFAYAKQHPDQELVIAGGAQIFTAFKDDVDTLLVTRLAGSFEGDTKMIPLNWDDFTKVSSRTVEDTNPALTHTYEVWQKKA

| IC50 (Dihydrofolate reductase [1]) | IC50 (Dihydrofolate reductase [2]) | IC50 (Dihydrofolate reductase [3]) | IC50 (Dihydrofolate reductase [4]) | IC50 (Dihydrofolate reductase [5]) | IC50 (Lacticaseibacillus casei [6]) | IC50 (Lacticaseibacillus casei [7]) | IC50 (Lacticaseibacillus casei [8]) | IC50 (Lacticaseibacillus casei [9]) | IC50 (Lacticaseibacillus casei [16]) | Compound | IC50 (Lacticaseibacillus casei [10]) | IC50 (Lacticaseibacillus casei [11]) | IC50 (Lacticaseibacillus casei [12]) | IC50 (Lacticaseibacillus casei [13]) | IC50 (Lacticaseibacillus casei [14]) | IC50 (Lacticaseibacillus casei [15]) | IC50 (Lacticaseibacillus casei [17]) | IC50 [18] |
| --- | --- | --- | --- | --- | --- | --- | --- | --- | --- | --- | --- | --- | --- | --- | --- | --- | --- | --- |
| 18 nM and 24 nM | 22 nM | 20 nM | 21 nM | 34 nM | 88000 nM | 11000 nM | 5500 nM | 3500 nM | > 300000 nM | Nc1nc(N)c2nc(CCc3ccc(C(=O)N[C@@H](CCC(=O)O)C(=O)O)cc3)cnc2n1 | 0.08 nM | 0.09 nM | 0.6 nM | 3 nM | 14 nM | 90 nM | 2300 nM | > 3000 nM |
|  |  |  |  |  | 170000 nM | 28000 nM | 14000 nM | 7400 nM | > 300000 nM | CCC(Cc1cnc2nc(N)nc(N)c2n1)c1ccc(C(=O)N[C@@H](CCC(=O)O)C(=O)O)cc1 (stereo not given in full) [EDATREXATE] | 0.63 nM | 0.16 nM | 1 nM | 9 nM | 90 nM |  |  |  |

| Compound | IC50 (Dihydrofolate reductase [1]) | IC50 (Dihydrofolate reductase [2]) | IC50 (Dihydrofolate reductase [3]) | IC50 (Dihydrofolate reductase [4]) | IC50 (Dihydrofolate reductase [5]) | IC50 (Lacticaseibacillus casei [6]) | IC50 (Lacticaseibacillus casei [7]) | IC50 (Lacticaseibacillus casei [8]) | IC50 (Lacticaseibacillus casei [9]) | IC50 (Lacticaseibacillus casei [16]) | IC50 (Lacticaseibacillus casei [10]) | IC50 (Lacticaseibacillus casei [11]) | IC50 (Lacticaseibacillus casei [12]) | IC50 (Lacticaseibacillus casei [13]) | IC50 (Lacticaseibacillus casei [14]) | IC50 (Lacticaseibacillus casei [15]) | IC50 (Lacticaseibacillus casei [17]) | IC50 [18] |
| --- | --- | --- | --- | --- | --- | --- | --- | --- | --- | --- | --- | --- | --- | --- | --- | --- | --- | --- |
| CN(Cc1cnc2nc(N)nc(N)c2n1)c1ccc(C(=O)N[C@@H](CCC(=O)O)C(=O)O)cc1 [METHOTREXATE] |  |  |  |  |  | 6000 nM | 1100 nM | 180 nM | 280 nM | 100000 nM |  | 0.09 nM | 0.2 nM | 0.8 nM | 2.2 nM | 27 nM | 280 nM | > 8000 nM |
